# Source: patent publication US20240189242A1, “LIPID NANOPARTICLE COMPOSITIONS AND METHODS OF FORMULATING THE SAME” (MODERNATX, INC., priority 2021, published 2024)
# Columns and labels:
# Format in all cases: physicochemical
# RNA [1] = experiment: percentage of IG in binary mixtures of RNA and ionizable lipid, ion pair reversed phase HPLC; conditions: for levels of IG: binary mixtures of RNA and Compound III with 1 mM agent, versus control; for initial rate of IG formation: Compound III binaries with 5 mM agent (FIG. 15)
# From the text: To detect and quantify the amount of IG present in LNP formulations comprising polynucleotides and lipid, a protocol was developed (FIG. 2) that included (1) extraction of the polynucleotide molecules (e.g. precipitation, liquid:liquid extraction); (2) assessment of integrity (e.g. purity, length) of the isolated polynucleotides by known methods (e.g. fragment analyzer, gel electrophoresis); and (3) analysis of the isolated polynucleotides by HPLC.
# (§1) RNA was extracted from the LNP formulation by precipitation in ammonium acetate in isopropanol; resuspended in water to target a final RNA concentration of 0.1 mg/mL; and assessed by fragment analyzer capillary electrophoresis and ion pair reversed phase HPLC (performed on a Thermo DNApac RP 100×2.1 mm column at 65° C., with mobile phases containing 50 mM dibutylammonium acetate and 100 mM triethylammonium acetate in water and acetonitrile). Elution with an acetonitrile gradient provided an RNA separation primarily driven by mRNA length and sensitive to any added hydrophobic elements. Two prominent peaks were apparent on the HPLC chromatogram (FIG. 2), including a “main peak” comprising non-adduct mRNA and an “IG” peak comprising mRNA with one or more covalent modifications. The mass fraction of RNA containing at least one lipid adduct was determined by integrating the area under the curve (AUC) of all RNA peaks (including products shorter than the full-length product, the full-length product, and the hydrophobic modified RNA) and taking the late-eluting region as an area percent of the total peak area.
# Compound III was dissolved in ethanol at a concentration of 4 mg/mL, and the RNA diluted in sodium acetate buffer pH 5.5; the RNA and lipids were then mixed in 25% ethanol. Samples were held at 25° C., and the RNA was periodically extracted by precipitation in isopropanol and analyzed by ion pair reversed phase (FIGS. 5 and 6A, data marked by *).
# RNA [2] = experiment: as above
# RNA [3] = experiment: percentage of IG in LNPs buffered with PBS or Tris, HPLC
# Protocol: as §1
# To determine if different buffering conditions confer reductions in the percentage of IG formed in binary mixtures of RNA and Compound III, binary mixtures were prepared with RNA and Compound III and buffered with PBS or Tris at and the percentage of IG in the resulting binary mixtures was quantified according to the protocol detailed in Example 1. In brief, a single batch of LNPs was split mid-process into four aliquots, two of which were prepared in a final buffer of 1×PBS and the other two of which were prepared in a final buffer of 100 mM Tris-HCl pH 7.4. […]
# To determine if different buffering conditions confer reductions in the percentage of IG formed in binary mixtures of RNA and Compound VI, binary mixtures were prepared with RNA and Compound VI and buffered PBS or Tris at and the percentage of IG in the resulting binary mixtures was quantified according to the protocol detailed in Example 1.
smiles,measurement,setting,value
O=C(O)CCCC[C@@H]1CCSS1 (racemic) [lipoic acid],levels of IG,"RNA [1]; 25° C., after 18 hours",reduced levels of IG
CCCCCCCCCCCOC(=O)CCCCCN(CCO)CCCCCCCC(=O)OC(CCCCCCCC)CCCCCCCC [Compound III],percentage of IG over time,RNA [2]; binary mixtures with RNA,increased over time
same,IG,"RNA [2]; control binary mixtures of RNA and Compound III (Example 5), after 0 days",~10%
same,IG,"RNA [2]; control binary mixtures of RNA and Compound III (Example 5), after 5 days",~40%
same,IG,"RNA [2]; control binary mixtures of RNA and Compound III (Example 5), after 25 days",~45%
same,IG,"RNA [2]; control binary mixtures of RNA and Compound III (Example 6), 25° C., after 1 day",~15%
same,IG,"RNA [2]; control binary mixtures of RNA and Compound III (Example 6), 25° C., after 7 days",~40%
same,IG detected,"RNA [2]; control binary mixtures of RNA and Compound III (Example 7), 25° C., after 18 hours",~35%
same,IG detected,"RNA [2]; control binary mixtures of RNA and Compound III, after 13 days of incubation at 25° C.",~45%
same,percentage IG detected,"RNA [2]; mRNA and Compound III treated with higher concentrations of sodium metabisulfite (KDS), removed by dialysis with 20 mM Tris, t=0 h and 24 hours",reduced when treated with higher concentrations
same,IG formation over time,"RNA [1]; chromatographically purified Compound III (up to 99% purity, no detectable Compound III-N-oxide) and RNA",still formed IG over time
same,IG,"RNA [1]; control binary mixtures of RNA and Compound III (Example 6), 25° C., after 3 days",~35%
same,IG detected,"RNA [1]; control binary mixtures of RNA and Compound III (Example 11), 25° C., after 18 hours",~20%
same,percentage of IG over time,RNA [3]; Compound III LNPs buffered with Tris and stored either at 5° C. or 20° C.,around 10%
same,"percentage of IG, Tris versus PBS","RNA [3]; Compound III LNPs, 100 mM Tris-HCl pH 7.4 (5° C., −20° C.) versus 1×PBS (5° C.)",lower in binary mixtures buffered with Tris compared to binary mixtures buffered with PBS
CCCCCCCCCN(CCCCCCCCC)CCN(CCCCCCCCC)CC(=O)N1CCN(C(=O)CN(CCCCCCCCC)CCCCCCCCC)CC1 [Compound VI],IG,"RNA [2]; control binary mixtures of RNA and Compound VI, after 1 day",~55%
same,IG,"RNA [2]; control binary mixtures of RNA and Compound VI, after 2 days",~70%
same,IG,"RNA [2]; control binary mixtures of RNA and Compound VI, after 13 days",~80%
same,"percentage of IG, Tris versus PBS","RNA [3]; Compound VI LNPs stored at 5° C., 20 mM Tris, 8% sucrose, pH 8 versus 1×PBS, pH 7.2",lower in binary mixtures buffered with Tris compared to binary mixtures buffered with PBS
"Clc1ccc(C(c2ccc(Cl)cc2)C(Cl)(Cl)Cl)cc1 [DDT, dichlorodiphenyltrichloroethane]",levels of IG,"RNA [1]; 25° C., after 18 hours",reduced levels of IG
"O[C@H](CS)[C@@H](O)CS [DTE, dithioerythritol]",levels of IG,"RNA [1]; 25° C., after 18 hours",reduced levels of IG
"O[C@H](CS)[C@H](O)CS [DTT, dithiothreitol]",levels of IG,"RNA [1]; 25° C., after 18 hours",reduced levels of IG
CC(=O)N[C@@H](CS)C(=O)O [N-acetyl cysteine],initial rate of IG formation,RNA [1],effective at eliminating the fast initial rate of IG formation
same,levels of IG,"RNA [1]; 25° C., after 18 hours",reduced levels of IG
"O=C(O)CCP(CCC(=O)O)CCC(=O)O [TCEP, tris(2-carboxyethyl)phosphine]",levels of IG,"RNA [1]; 25° C., after 18 hours",reduced levels of IG
NCCSSCCN [cystamine],levels of IG,"RNA [1]; 25° C., after 18 hours",reduced levels of IG
N[C@@H](CCC(=O)N[C@@H](CS)C(=O)NCC(=O)O)C(=O)O [glutathione],levels of IG,"RNA [1]; 25° C., after 18 hours",reduced levels of IG
"N[C@@H](CCS)C(=O)O [homo cysteine, homocysteine]",levels of IG,"RNA [1]; 25° C., after 18 hours",reduced levels of IG
O=S([O-])S(=O)(=O)[O-].[K+].[K+] [potassium metabisulfite],initial rate of IG formation,RNA [1],effective at eliminating the fast initial rate of IG formation
same,levels of IG,"RNA [1]; 25° C., after 18 hours",reduced levels of IG
[BH4-].[Na+] [sodium borohydrate],levels of IG,"RNA [1]; 25° C., after 18 hours",reduced levels of IG
O=S([O-])S(=O)(=O)[O-].[Na+].[Na+] [sodium metabisulfite],initial rate of IG formation,RNA [1],effective at eliminating the fast initial rate of IG formation
O=C([O-])CS.[Na+] [sodium thioglycolate],levels of IG,"RNA [1]; 25° C., after 18 hours",reduced levels of IG
O=S([O-])([O-])=S.[Na+].[Na+] [sodium thiosulfate],levels of IG,"RNA [1]; 25° C., after 18 hours",reduced levels of IG
